# From patent US20100004187A1 (priority 2008, published 2010)
# Like-named read-outs stand apart in the source and are kept apart here.
# Legend:
# [1] = tested on: lawn of E. coli; assay type: cell-based; conditions: 1.0 tet/0.78 Cohex and 2.0 tet/1.6 mg Cohex disk pairings, overnight at 37° C.
# [2] = target: CorA of Methanococcus jannaschii (Methanocaldococcus jannaschii, UniProt Q58439); conditions: cited from earlier work
# [3] = tested on: bacterial growth; conditions: cited from earlier work
# [4] = tested on: S. typhimurium strain in which CorA was the only functional Mg2+ transporter; conditions: cited from earlier work
# [5] = target: TolC (E. coli) (Escherichia coli, UniProt P02930); conditions: isothermal titration calorimetry; cited from earlier work
# [6] = tested on: BHK cells
# [7] = tested on: Francisella tularensis subspecies Novicida; assay type: cell-based
# [8] = target: MgtB Mg transporter (Salmonella typhimurium, UniProt P22036); conditions: cited from earlier work
# [9] = target: CorA of Salmonella typhimurium (Salmonella typhimurium, UniProt P0A2R8); conditions: cited from earlier work
# [10] = mouse, in vivo
# [11] = tested on: bacterial growth; assay type: cell-based
# [12] = tested on: Francisella philomiragia; assay type: cell-based
# Chain of CorA of Salmonella typhimurium (P0A2R8 whole entry): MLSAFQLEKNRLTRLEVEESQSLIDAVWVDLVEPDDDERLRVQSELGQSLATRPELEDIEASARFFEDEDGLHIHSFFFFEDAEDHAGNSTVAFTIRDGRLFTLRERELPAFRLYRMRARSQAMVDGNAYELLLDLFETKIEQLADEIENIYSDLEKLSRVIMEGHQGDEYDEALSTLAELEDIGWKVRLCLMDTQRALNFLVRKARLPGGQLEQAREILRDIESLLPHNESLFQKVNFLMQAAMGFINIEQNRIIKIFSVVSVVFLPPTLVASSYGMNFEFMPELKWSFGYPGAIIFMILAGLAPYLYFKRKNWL
# Chain of TolC (E. coli) (P02930 23-493): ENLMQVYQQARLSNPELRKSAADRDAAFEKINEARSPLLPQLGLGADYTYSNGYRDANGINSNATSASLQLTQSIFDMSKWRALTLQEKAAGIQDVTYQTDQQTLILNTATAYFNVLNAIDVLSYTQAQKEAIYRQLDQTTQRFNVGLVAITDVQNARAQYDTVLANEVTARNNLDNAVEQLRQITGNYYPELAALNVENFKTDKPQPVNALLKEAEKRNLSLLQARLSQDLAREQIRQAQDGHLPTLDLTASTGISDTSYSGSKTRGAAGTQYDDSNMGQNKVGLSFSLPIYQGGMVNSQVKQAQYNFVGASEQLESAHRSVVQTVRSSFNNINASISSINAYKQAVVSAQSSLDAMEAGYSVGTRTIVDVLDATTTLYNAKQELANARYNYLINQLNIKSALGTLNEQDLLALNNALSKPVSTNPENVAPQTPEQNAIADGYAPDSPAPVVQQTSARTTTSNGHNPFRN
# Chain of MgtB Mg transporter (P22036 whole entry): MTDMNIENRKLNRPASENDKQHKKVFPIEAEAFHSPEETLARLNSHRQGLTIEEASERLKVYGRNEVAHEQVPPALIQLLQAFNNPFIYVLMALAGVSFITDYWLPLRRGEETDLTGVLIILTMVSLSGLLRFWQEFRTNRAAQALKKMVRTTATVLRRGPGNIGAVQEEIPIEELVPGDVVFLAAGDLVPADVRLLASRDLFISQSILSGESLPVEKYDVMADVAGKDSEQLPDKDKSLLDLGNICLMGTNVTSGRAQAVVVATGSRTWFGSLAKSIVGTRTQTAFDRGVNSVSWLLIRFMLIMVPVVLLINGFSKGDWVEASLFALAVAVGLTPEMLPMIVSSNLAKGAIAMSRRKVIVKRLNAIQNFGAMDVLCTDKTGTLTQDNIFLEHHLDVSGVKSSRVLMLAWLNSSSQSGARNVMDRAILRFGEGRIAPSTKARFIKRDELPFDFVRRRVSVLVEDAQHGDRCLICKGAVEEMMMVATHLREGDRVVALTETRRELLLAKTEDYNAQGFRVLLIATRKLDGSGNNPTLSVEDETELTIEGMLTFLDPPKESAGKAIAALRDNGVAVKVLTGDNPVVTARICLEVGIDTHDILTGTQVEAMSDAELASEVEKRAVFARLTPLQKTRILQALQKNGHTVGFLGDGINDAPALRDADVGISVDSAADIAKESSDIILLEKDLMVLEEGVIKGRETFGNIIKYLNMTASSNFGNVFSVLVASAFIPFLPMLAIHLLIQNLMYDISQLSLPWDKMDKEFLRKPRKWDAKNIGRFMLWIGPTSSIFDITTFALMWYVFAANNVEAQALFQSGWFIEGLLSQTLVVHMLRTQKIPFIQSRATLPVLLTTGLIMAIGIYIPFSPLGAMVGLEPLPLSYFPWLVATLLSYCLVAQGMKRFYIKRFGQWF
# Chain of CorA of Methanococcus jannaschii (Q58439 whole entry): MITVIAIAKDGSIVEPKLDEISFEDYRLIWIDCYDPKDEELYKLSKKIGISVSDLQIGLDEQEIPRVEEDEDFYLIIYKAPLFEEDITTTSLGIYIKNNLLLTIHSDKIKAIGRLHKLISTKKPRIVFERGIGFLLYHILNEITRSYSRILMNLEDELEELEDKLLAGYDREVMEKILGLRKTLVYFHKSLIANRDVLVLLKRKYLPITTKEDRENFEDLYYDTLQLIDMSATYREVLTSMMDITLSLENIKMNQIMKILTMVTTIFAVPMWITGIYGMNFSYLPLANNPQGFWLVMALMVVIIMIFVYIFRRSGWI
substance,measurement,setting,value
hexamminecobalt (III) chloride [Cohex],"zone of inhibition, interaction with tetracycline",[1],synergistic effect
same,inhibition of 63Ni2+ uptake,[2],inhibited
same,effect on bacterial growth,[3],prevents bacterial growth at micromolar concentrations
same,inhibition of growth,[4],inhibited the growth
same,Cohex ions bound per trimeric TolC,[5],~1
same,CC50,[6],~3200 µM
same,kind of inhibition of the bacterial growth,[7],bacteriostatic rather than bacteriocidal
same,inhibition of alternate pathways of Mg2+ transport,[8],does not inhibit
same,inhibition of 63Ni2+ uptake,[9],inhibited
same,Ki,"[9]; corresponding to the IC50, species not given",0.5 µM
same,toxicity to mice,[10],not to be highly toxic
same,effect of the presence of Cohex on potency of the antibiotic drugs,[11],increased the potency of the drugs up to about an order of magnitude
same,effect on bacterial growth,[11],no effect on bacterial growth
same,kind of inhibition of the bacterial growth,[12],bacteriostatic rather than bacteriocidal
